For the experiment, the system named is human FXN. In words: EC50 assay: FXN mRNA expression by qRT-PCR in GM15850 cells after 48 hrs compound treatment. Particulars: Homo sapiens, 48 hrs incubation, hFXN expression normalized to hGAPDH (qRT-PCR), read-out: EC50 WT (nM, 48 hr). It is filed as cell-based. The procedure:
Cell culture: Cells were cultured in RPMI1640 medium+15% FBS. Cells were maintained at a density between 2e5/mL and 1e6/mL. Cells were centrifuged, resuspended in fresh medium, counted and plated at 150,000 cells per well in 100 uL in a non-coated, flat bottom tissue culture plate.
Compound treatment: 10 mM stock solution of FA GeneTAC was diluted 1:10 in DMSO followed by a 1:100 dilution in growth medium. Working solution was then further diluted to 10× desired final concentration of 150 nM. Compound was then diluted at a 1:3 ratio into growth medium containing 0.01% DMSO. 5-point, 3-fold dose response curve was generated. 11 μL of 1OX compound was added to wells containing 100 μL cell suspension of GM15850. 11 μL growth medium containing 0.01% DMSO was added to all wells not treated with FA GeneTAC. Cells were allowed to incubate for 48 hrs prior to cell lysis using guanidine isothiocyanate solution.
RNA isolation: Total RNA was isolated and purified in 384-well column filter plates using chaotropic salt.
qRT-PCR: qRT-PCR reactions were assembled using AgPath-ID reagents (Thermo Fisher) using 6 uL mastermix and 4 μL RNA. qRT-PCR TaqMan primer probe sets against human FXN (Assay ID Hs01075496_m1) and human GAPDH (Assay ID Hs00266705_g1) were used to measure the intended targets. qRT-PCR was run on the ThermoFisher QuantStudio 6 PRO instrument using the manufacturer's recommended cycling conditions.
Data analysis: qPCR data was analyzed using Thermo Fisher Design and Analysis software. Data was exported to Excel and hFXN expression was normalized to hGAPDH expression
A<100 nM; B is 100 nM to 500 nM; C>500 nM.
In general terms: Quantitative PCR measures a nucleic acid by following its amplification.

One may read the EC50 as the concentration that produces a half-maximal response.

SMILES strings stand for the structures.

On to `Cc1sc2c(c1C)C(c1ccc(Cl)cc1)=N[C@@H](CC(=O)Nc1ccc(N3CCN(CCOCCOCCOCCOCCOCCOCCOCCNC(=O)CCNC(=O)c4nc(NC(=O)CCNC(=O)c5cc(NC(=O)c6nc(NC(=O)CCNC(=O)c7cc(NC(=O)c8nccn8C)cn7C)cn6C)cn5C)cn4C)CC3)cc1)c1nnc(C)n1-2` [Compound 2], for which the EC50 is less than 100 nM.
Under `Cc1sc2c(c1C)C(c1ccc(Cl)cc1)=N[C@@H](CC(=O)Nc1ccc(N3CCN(CCOCCOCCOCCOCCOCCOCCNC(=O)CCNC(=O)c4nc(NC(=O)CCNC(=O)c5cc(NC(=O)c6nc(NC(=O)CCNC(=O)c7cc(NC(=O)c8nccn8C)cn7C)cn6C)cn5C)cn4C)CC3)cc1)c1nnc(C)n1-2` [Compound 3] stands less than 100 nM; under `Cc1sc2c(c1C)C(c1ccc(Cl)cc1)=N[C@@H](CC(=O)Nc1ccc(N3CCN(CCOCCOCCOCCOCCOCCNC(=O)CCNC(=O)c4nc(NC(=O)CCNC(=O)c5cc(NC(=O)c6nc(NC(=O)CCNC(=O)c7cc(NC(=O)c8nccn8C)cn7C)cn6C)cn5C)cn4C)CC3)cc1)c1nnc(C)n1-2` [Compound 4], less than 100 nM.
As to `Cc1sc2c(c1C)C(c1ccc(Cl)cc1)=N[C@@H](CC(=O)Nc1ccc(N3CCN(CC4CCN(CCOCCOCCOCCOCCOCCNC(=O)CCNC(=O)c5nc(NC(=O)CCNC(=O)c6cc(NC(=O)c7nc(NC(=O)CCNC(=O)c8cc(NC(=O)c9nccn9C)cn8C)cn7C)cn6C)cn5C)CC4)CC3)cc1)c1nnc(C)n1-2` [Compound 5], the EC50 was 100 to 500 nM.
On to `Cc1sc2c(c1C)C(c1ccc(Cl)cc1)=N[C@@H](CC(=O)Nc1ccc(N3CCN(CC4CCN(CCOCCOCCOCCOCCNC(=O)CCNC(=O)c5nc(NC(=O)CCNC(=O)c6cc(NC(=O)c7nc(NC(=O)CCNC(=O)c8cc(NC(=O)c9nccn9C)cn8C)cn7C)cn6C)cn5C)CC4)CC3)cc1)c1nnc(C)n1-2` [Compound 6], for which the EC50 lay within 100 to 500 nM.
For the compound `Cc1sc2c(c1C)C(c1ccc(Cl)cc1)=N[C@@H](CC(=O)Nc1ccc(N3CCN(CC4CCN(CCOCCOCCOCCNC(=O)CCNC(=O)c5nc(NC(=O)CCNC(=O)c6cc(NC(=O)c7nc(NC(=O)CCNC(=O)c8cc(NC(=O)c9nccn9C)cn8C)cn7C)cn6C)cn5C)CC4)CC3)cc1)c1nnc(C)n1-2` [Compound 7], the EC50 lay within 100 to 500 nM.
In the case of `Cc1sc2c(c1C)C(c1ccc(Cl)cc1)=N[C@@H](CC(=O)Nc1ccc(N3CCC(N4CCN(CCOCCOCCOCCOCCOCCOCCNC(=O)CCNC(=O)c5nc(NC(=O)CCNC(=O)c6cc(NC(=O)c7nc(NC(=O)CCNC(=O)c8cc(NC(=O)c9nccn9C)cn8C)cn7C)cn6C)cn5C)CC4)CC3)cc1)c1nnc(C)n1-2` [Compound 8] it was less than 100 nM.
In the case of `Cc1sc2c(c1C)C(c1ccc(Cl)cc1)=N[C@@H](CC(=O)Nc1ccc(N3CCC(N4CCN(CCOCCOCCOCCOCCOCCNC(=O)CCNC(=O)c5nc(NC(=O)CCNC(=O)c6cc(NC(=O)c7nc(NC(=O)CCNC(=O)c8cc(NC(=O)c9nccn9C)cn8C)cn7C)cn6C)cn5C)CC4)CC3)cc1)c1nnc(C)n1-2` [Compound 9] it was less than 100 nM.
In the case of `Cc1sc2c(c1C)C(c1ccc(Cl)cc1)=N[C@@H](CC(=O)Nc1ccc(N3CCC(N4CCN(CCOCCOCCOCCOCCNC(=O)CCNC(=O)c5nc(NC(=O)CCNC(=O)c6cc(NC(=O)c7nc(NC(=O)CCNC(=O)c8cc(NC(=O)c9nccn9C)cn8C)cn7C)cn6C)cn5C)CC4)CC3)cc1)c1nnc(C)n1-2` [Compound 10] it was less than 100 nM; in that of `Cc1sc2c(c1C)C(c1ccc(Cl)cc1)=N[C@@H](CC(=O)Nc1ccc(C#CC3CCN(CCOCCOCCOCCOCCOCCOCCNC(=O)CCNC(=O)c4nc(NC(=O)CCNC(=O)c5cc(NC(=O)c6nc(NC(=O)CCNC(=O)c7cc(NC(=O)c8nccn8C)cn7C)cn6C)cn5C)cn4C)CC3)cc1)c1nnc(C)n1-2` [Compound 11], less than 100 nM; in that of `Cc1sc2c(c1C)C(c1ccc(Cl)cc1)=N[C@@H](CC(=O)Nc1ccc(C#CC3CCN(CCOCCOCCOCCOCCOCCNC(=O)CCNC(=O)c4nc(NC(=O)CCNC(=O)c5cc(NC(=O)c6nc(NC(=O)CCNC(=O)c7cc(NC(=O)c8nccn8C)cn7C)cn6C)cn5C)cn4C)CC3)cc1)c1nnc(C)n1-2` [Compound 12], less than 100 nM.
`Cc1sc2c(c1C)C(c1ccc(Cl)cc1)=N[C@@H](CC(=O)Nc1ccc(C#CC3CCN(CCOCCOCCOCCOCCNC(=O)CCNC(=O)c4nc(NC(=O)CCNC(=O)c5cc(NC(=O)c6nc(NC(=O)CCNC(=O)c7cc(NC(=O)c8nccn8C)cn7C)cn6C)cn5C)cn4C)CC3)cc1)c1nnc(C)n1-2` [Compound 13]: the concentration for a half-maximal effect (EC50) was less than 100 nM.
Regarding `Cc1sc2c(c1C)C(c1ccc(Cl)cc1)=N[C@@H](CC(=O)Nc1ccc(C#CC#CCNCCOCCOCCOCCOCCOCCOCCNC(=O)CCNC(=O)c3nc(NC(=O)CCNC(=O)c4cc(NC(=O)c5nc(NC(=O)CCNC(=O)c6cc(NC(=O)c7nccn7C)cn6C)cn5C)cn4C)cn3C)cc1)c1nnc(C)n1-2` [Compound 14], the half-maximal effective concentration (EC50) is 100 to 500 nM.
Under `Cc1sc2c(c1C)C(c1ccc(Cl)cc1)=N[C@@H](CC(=O)Nc1ccc(C#CC#CCNCCOCCOCCOCCOCCOCCNC(=O)CCNC(=O)c3nc(NC(=O)CCNC(=O)c4cc(NC(=O)c5nc(NC(=O)CCNC(=O)c6cc(NC(=O)c7nccn7C)cn6C)cn5C)cn4C)cn3C)cc1)c1nnc(C)n1-2` [Compound 15] stands less than 100 nM; under `Cc1sc2c(c1C)C(c1ccc(Cl)cc1)=N[C@@H](CC(=O)Nc1ccc(C#CC#CCNCCOCCOCCOCCOCCNC(=O)CCNC(=O)c3nc(NC(=O)CCNC(=O)c4cc(NC(=O)c5nc(NC(=O)CCNC(=O)c6cc(NC(=O)c7nccn7C)cn6C)cn5C)cn4C)cn3C)cc1)c1nnc(C)n1-2` [Compound 16], less than 100 nM; under `Cc1sc2c(c1C)C(c1ccc(Cl)cc1)=N[C@@H](CC(=O)N1CCN(CC3CCN(CCOCCOCCOCCOCCOCCN4CCC(CN5CCN(C(=O)CCNC(=O)c6nc(NC(=O)CCNC(=O)c7cc(NC(=O)c8nc(NC(=O)CCNC(=O)c9cc(NC(=O)c%10nccn%10C)cn9C)cn8C)cn7C)cn6C)CC5)CC4)CC3)CC1)c1nnc(C)n1-2` [Compound 18], more than 500 nM.
For `Cc1sc2c(c1C)C(c1ccc(Cl)cc1)=N[C@@H](CC(=O)N1CCN(CC3CCN(CCOCCOCCOCCOCCN4CCC(CN5CCN(C(=O)CCNC(=O)c6nc(NC(=O)CCNC(=O)c7cc(NC(=O)c8nc(NC(=O)CCNC(=O)c9cc(NC(=O)c%10nccn%10C)cn9C)cn8C)cn7C)cn6C)CC5)CC4)CC3)CC1)c1nnc(C)n1-2` [Compound 19], the 50% effective concentration (EC50) was more than 500 nM.
In the case of `Cc1sc2c(c1C)C(c1ccc(Cl)cc1)=N[C@@H](CC(=O)N1CCN(CC3CCN(CCOCCOCCOCCN4CCC(CN5CCN(C(=O)CCNC(=O)c6nc(NC(=O)CCNC(=O)c7cc(NC(=O)c8nc(NC(=O)CCNC(=O)c9cc(NC(=O)c%10nccn%10C)cn9C)cn8C)cn7C)cn6C)CC5)CC4)CC3)CC1)c1nnc(C)n1-2` [Compound 20] it was more than 500 nM; in that of `Cc1sc2c(c1C)C(c1ccc(Cl)cc1)=N[C@@H](CC(=O)N[C@H]1CC[C@H](N(C)CCOCCOCCOCCN3CCN(CCOCCOCCOCCNC(=O)CCNC(=O)c4nc(NC(=O)CCNC(=O)c5cc(NC(=O)c6nc(NC(=O)CCNC(=O)c7cc(NC(=O)c8nccn8C)cn7C)cn6C)cn5C)cn4C)CC3)CC1)c1nnc(C)n1-2` [Compound 21], more than 500 nM; in that of `Cc1sc2c(c1C)C(c1ccc(Cl)cc1)=N[C@@H](CC(=O)N[C@H]1CC[C@H](N(C)CCOCCOCCOCCOCCOCCOCCOCCOCCNC(=O)CCNC(=O)c3nc(NC(=O)CCNC(=O)c4cc(NC(=O)c5nc(NC(=O)CCNC(=O)c6cc(NC(=O)c7nccn7C)cn6C)cn5C)cn4C)cn3C)CC1)c1nnc(C)n1-2` [Compound 22], less than 100 nM.
In the case of `Cc1sc2c(c1C)C(c1ccc(Cl)cc1)=N[C@@H](CC(=O)NC1CCN(CCOCCOCCOCCN3CCN(CCOCCOCCOCCNC(=O)CCNC(=O)c4nc(NC(=O)CCNC(=O)c5cc(NC(=O)c6nc(NC(=O)CCNC(=O)c7cc(NC(=O)c8nccn8C)cn7C)cn6C)cn5C)cn4C)CC3)CC1)c1nnc(C)n1-2` [Compound 23] it was 100 to 500 nM; in that of `COc1ccc2c(c1)C(c1ccc(Cl)cc1)=N[C@@H](CC(=O)NC1CCN(CCOCCOCCOCCN3CCN(CCOCCOCCOCCNC(=O)CCNC(=O)c4nc(NC(=O)CCNC(=O)c5cc(NC(=O)c6nc(NC(=O)CCNC(=O)c7cc(NC(=O)c8nccn8C)cn7C)cn6C)cn5C)cn4C)CC3)CC1)c1nnc(C)n1-2` [Compound 24], 100 to 500 nM.
In the case of `Cc1sc2c(c1C)C(c1ccc(Cl)cc1)=N[C@@H](CC(=O)N1CC3(CCN(CCOCCOCCOCCN4CCN(CCOCCOCCOCCNC(=O)CCNC(=O)c5nc(NC(=O)CCNC(=O)c6cc(NC(=O)c7nc(NC(=O)CCNC(=O)c8cc(NC(=O)c9nccn9C)cn8C)cn7C)cn6C)cn5C)CC4)CC3)C1)c1nnc(C)n1-2` [Compound 25] it was more than 500 nM; in that of `COc1ccc2c(c1)C(c1ccc(Cl)cc1)=N[C@@H](CC(=O)N1CC3(CCN(CCOCCOCCOCCN4CCN(CCOCCOCCOCCNC(=O)CCNC(=O)c5nc(NC(=O)CCNC(=O)c6cc(NC(=O)c7nc(NC(=O)CCNC(=O)c8cc(NC(=O)c9nccn9C)cn8C)cn7C)cn6C)cn5C)CC4)CC3)C1)c1nnc(C)n1-2` [Compound 26], more than 500 nM; in that of `Cc1sc2c(c1C)C(c1ccc(Cl)cc1)=N[C@@H](CC(=O)N1CCN(CCOCCOCCOCCN3CCN(CCOCCOCCOCCNC(=O)CCNC(=O)c4nc(NC(=O)CCNC(=O)c5cc(NC(=O)c6nc(NC(=O)CCNC(=O)c7cc(NC(=O)c8nccn8C)cn7C)cn6C)cn5C)cn4C)CC3)CC1)c1nnc(C)n1-2` [Compound 27], more than 500 nM.
